# In publication PMC6817585, “Simultaneous Determination of Five Alkaloids by HPLC-MS/MS Combined With Micro-SPE in Rat Plasma and Its Application to Pharmacokinetics After Oral Administration of Lotus Leaf Extract” (Frontiers in Pharmacology, 2019):
# Like-named read-outs stand apart in the source and are kept apart here.
# How the values were obtained:
# [1] = Stability of stock and working solutions; type: physicochemical; conditions: working solution, n = 6
# Experimental: (§1) The stabilities (including auto-sampler, freeze–thaw cycles, and short-time and long-term stability) of all analytes were obtained by testing QC samples of four concentrations. Moreover, the stabilities for stock and working solution were assessed with mixed standard substance (100 ng·ml^−1) and the QC sample solutions of four concentration levels, respectively. These solutions were achieved by diluting stock solutions kept at 4°C for 2 weeks. For IS, the evaluated procedures of two stabilities were same as the five alkaloids.
# [2] = Stability of analytes in rat plasma QC samples (auto-sampler, freeze-thaw, short-time, long-term); type: in vitro ADME
# Experimental: as §1
# [3] = Pharmacokinetics of five alkaloids in rat plasma after oral administration of lotus leaf extract; type: in vivo, Male Sprague-Dawley rats
# Experimental: All analyses were performed on Agilent 1200 HPLC system (Agilent Corporation, USA) and API 3200 triple-quadrupole mass spectrometer (Concord, Ontario, Canada) in multiple-reaction monitoring (MRM) with positive ionization mode. Acetonitrile (A) and formic acid aqueous solution (B) (0.1%, v/v) is used to separate the analytes on Eclipse plus C18 column (4.6 mm × 100 mm, 1.8 µm) with a guard C18 column (2.1 mm × 12.5 mm, 5 µm). The gradient of elution is as follows: 5%–60% A at 0 to 4 min, 60%–70% A at 4 to 5 min, 70%–93% A at 5 to 7 min, 93%–94% A at 7 to 11 min, 94%–5% A at 11 to 12 min, and 5%–5% A at 12 to 17 min. The flow rate and injection volume are 0.3 ml·min^-1 and 5 µl, respectively. The main parameters of ion source including the ion spray voltage, the curtain gas, and temperature are set at 5000 V, 35 psi, and 450°C, respectively.
# The real plasma sample (100 µl) and IS solution (10 µl) were vortex-mixed for 1 min. The sample was carried out with the SPE column (Cleanert PEP-2, 40–60 µm, 60 Å, 10 mg/1 ml; Phenomenex, Torrance, CA, USA). First, SPE columns were activated by 50% methanol in water (1 ml) and 0.1% formic acid in water (1 ml) and were used to activate the SPE column in sequence. Second, columns were washed with 200 µl methanol (20%, v/v) and eluted with acetonitrile (400 µl) after the plasma samples were added. Finally, the eluent was centrifuged for 10 min with 14,000 rpm. Then final solutions were injected into the HPLC-MS/MS and analyzed.
# The pharmacokinetic study was conducted in accordance with the Guidelines for the Care and Use of Laboratory Animals by the US National Institutes of Health and approved by the Animal Ethics Committee of Tianjin University of Traditional Chinese Medicine (permit number: TCM-LAEC2019022, Tianjin, China),. Male Sprague-Dawley rats (240–260 g) were fed in the animal laboratory of the Tianjin University of Traditional Chinese Medicine under the standard conditions. These rats were allowed free to get standard laboratory food and water and conformed for 1 week until 12 h before experiment. These rats (n = 10) were fasted, although they were still given water for 12 h, before the oral administration of lotus leaf extract. […] The plasma samples were centrifuged in 10 min at 7000 rpm and kept at −20°C until analyzed.
# All of the pharmacokinetic parameters were calculated by one compartment model with DAS 1.0 software (Medical College of Wannan). The maximum drug concentration (Cmax) and the time to reach Cmax (Tmax) were acquired from observed concentration–time profile for oral administration in plasma. All data were shown as mean ± SD.
# [4] = concentration LLOQ, from stock kept at 4°C for 2 weeks
# [5] = male, Sprague-Dawley, rat, in vivo, po, 2.4 g/kg
# [6] = rat plasma, oral lotus leaf extract 2.4 g·kg^−1, n = 10, mean ± SD
structure (smiles),measurement,setting,value
"COc1cc2c3c(c1OC)C1(C=CC(=O)C=C1)C[C@H]3N(C)CC2 [Pronuciferine, pronuciferine]","Remain, working solution",[1]; 2 ng/ml,92.9%
same,"Remain, working solution",[1]; 100 ng/ml,99.9%
same,"Remain, working solution",[1]; 500 ng/ml,105%
same,"Remain, working solution",[1]; [4],99.3%
same,"Remain, freeze thaw cycles","[2]; rat, plasma",81.9%
same,"Remain, freeze thaw cycles","[2]; rat, plasma, 2 ng/ml",93.3%
same,"Remain, freeze thaw cycles","[2]; rat, plasma, 100 ng/ml",85.5%
same,"Remain, freeze thaw cycles","[2]; rat, plasma, 500 ng/ml",87.2%
same,"Remain, −80°C for 1 month","[2]; rat, plasma, 1 month",99.2%
same,"Remain, −80°C for 1 month","[2]; rat, plasma, 1 month, 2 ng/ml",99.0%
same,"Remain, −80°C for 1 month","[2]; rat, plasma, 1 month, 100 ng/ml",93.9%
same,"Remain, −80°C for 1 month","[2]; rat, plasma, 1 month, 500 ng/ml",90.4%
same,"Remain, autosampler for 24 h","[2]; rat, plasma, 24 h",85.5%
same,"Remain, room temperature for 24 h","[2]; rat, plasma, 24 h",89.2%
same,"Remain, autosampler for 24 h","[2]; rat, plasma, 24 h, 2 ng/ml",88.3%
same,"Remain, room temperature for 24 h","[2]; rat, plasma, 24 h, 2 ng/ml",106%
same,"Remain, autosampler for 24 h","[2]; rat, plasma, 24 h, 100 ng/ml",92.6%
same,"Remain, room temperature for 24 h","[2]; rat, plasma, 24 h, 100 ng/ml",98.9%
same,"Remain, autosampler for 24 h","[2]; rat, plasma, 24 h, 500 ng/ml",87.5%
same,"Remain, room temperature for 24 h","[2]; rat, plasma, 24 h, 500 ng/ml",87.1%
same,AUC,[3]; [5],2030 ± 717 ng·h/mL
same,AUC(0-inf),[3]; [5],2100 ± 704 ng·h/mL
same,Cmax,[3]; [5],210 ± 87 ng/mL
same,MRT,[3]; [5],7.43 ± 1.18 h
same,MRT inf,[3]; [5],8.36 ± 1.98 h
same,Tmax,[3]; [5],4.9 ± 1.37 h
same,half-life,[3]; [5],266 ± 113 min
same,Absorption after orally administrating the lotus leaf extract (in words),"[3]; rat, in vivo, po",slow absorption
same,Plasma exposure (in words),"[3]; rat, in vivo, po",abundant plasma exposure
same,AUCs(0–24 h),"[3]; rat, in vivo, po, 2.4 g/kg",2030 ± 716 ng·h/mL
"COc1cc2c3c(c1OC)-c1ccccc1C[C@H]3N(C)CC2 [Nunciferine, nunciferine]","Remain, working solution",[1]; 2 ng/ml,92.5%
same,"Remain, working solution",[1]; 100 ng/ml,98.7%
same,"Remain, working solution",[1]; 500 ng/ml,108%
same,"Remain, working solution",[1]; [4],101%
same,"Remain, autosampler for 24 h","[2]; rat plasma QC, autosampler 24 h, 2 ng/ml, n = 6",89.7%
same,"Remain, autosampler for 24 h","[2]; rat plasma QC, autosampler 24 h, 100 ng/ml, n = 6",98.4%
same,"Remain, autosampler for 24 h","[2]; rat plasma QC, autosampler 24 h, 500 ng/ml, n = 6",85.4%
same,"Remain, autosampler for 24 h","[2]; rat plasma QC, autosampler 24 h, LLOQ, n = 6",87.5%
same,"Remain, freeze thaw cycles","[2]; rat plasma QC, freeze thaw cycles, 2 ng/ml, n = 6",92.5%
same,"Remain, freeze thaw cycles","[2]; rat plasma QC, freeze thaw cycles, 100 ng/ml, n = 6",92.0%
same,"Remain, freeze thaw cycles","[2]; rat plasma QC, freeze thaw cycles, 500 ng/ml, n = 6",85.3%
same,"Remain, freeze thaw cycles","[2]; rat plasma QC, freeze thaw cycles, LLOQ, n = 6",95.9%
same,"Remain, room temperature for 24 h","[2]; rat plasma QC, room temperature 24 h, 2 ng/ml, n = 6",96.5%
same,"Remain, room temperature for 24 h","[2]; rat plasma QC, room temperature 24 h, 100 ng/ml, n = 6",109%
same,"Remain, room temperature for 24 h","[2]; rat plasma QC, room temperature 24 h, 500 ng/ml, n = 6",89.3%
same,"Remain, room temperature for 24 h","[2]; rat plasma QC, room temperature 24 h, LLOQ, n = 6",94.4%
same,"Remain, −80°C for 1 month","[2]; rat plasma QC, −80°C 1 month, 2 ng/ml, n = 6",96.3%
same,"Remain, −80°C for 1 month","[2]; rat plasma QC, −80°C 1 month, 100 ng/ml, n = 6",100%
same,"Remain, −80°C for 1 month","[2]; rat plasma QC, −80°C 1 month, 500 ng/ml, n = 6",91.4%
same,"Remain, −80°C for 1 month","[2]; rat plasma QC, −80°C 1 month, LLOQ, n = 6",99.4%
same,MRT,"[3]; male, Sprague-Dawley, rat, in vivo, po, 2.4 g/kg, rat plasma, oral lotus leaf extract 2.4 g·kg^−1, n = 10, mean ± SD, read-out: MRT(0–tn)",5.49 ± 0.96 h
same,MRT inf,"[3]; male, Sprague-Dawley, rat, in vivo, po, 2.4 g/kg, rat plasma, oral lotus leaf extract 2.4 g·kg^−1, n = 10, mean ± SD, read-out: MRT(0–∞)",6.14 ± 1.47 h
same,Tmax,"[3]; male, Sprague-Dawley, rat, in vivo, po, 2.4 g/kg, rat plasma, oral lotus leaf extract 2.4 g·kg^−1, n = 10, mean ± SD, read-out: Tmax",3.5 ± 1.84 h
same,half-life,"[3]; male, Sprague-Dawley, rat, in vivo, po, 2.4 g/kg, rat plasma, oral lotus leaf extract 2.4 g·kg^−1, n = 10, one compartment model, mean ± SD, read-out: T1/2 (converted)",371 ± 186 min
same,AUCs(0–24 h),"[3]; rat plasma, oral lotus leaf extract 2.4 g·kg^−1",2070 ± 919 ng·h/mL
same,AUC(0–tn),[3]; [6],2069 ± 919 ng·h/mL
same,AUC(0–∞),[3]; [6],2142 ± 961 ng·h/mL
same,Cmax,[3]; [6],317.58 ± 175.05 ng/mL
same,Cmax,"[3]; rat plasma, oral lotus leaf extract 2.4 g·kg^−1, n = 10, mean ± SD, listed as nunciferine",317.6 ± 175.1 ng/mL
same,Plasma exposure (in words),"[3]; rat, oral lotus leaf extract 2.4 g·kg^−1",abundant plasma exposure
